Measurements as given in patent publication US20110039787A1, “COMPOSITIONS, KITS AND METHODS FOR TREATING BENIGN PROSTATE HYPERPLASIA” (priority 2009, published 2011).
Square brackets hold non-standard residues; d marks the D form. Peptide text beside a SMILES is read from it. * marks the point of attachment. dPhe(4-NHCONH2) = NC(=O)Nc1ccc(C[C@@H](N)C(=O)O)cc1; Dihydroorotyl(S) = O=C1C[C@@H](C(=O)*)NC(=O)N1; dPhe(4-Cl) = N[C@H](Cc1ccc(Cl)cc1)C(=O)O; Phe(4-NH2) = Nc1ccc(C[C@H](N)C(=O)O)cc1; d2Nal = N[C@H](Cc1ccc2ccccc2c1)C(=O)O; Lys(iPr) = CC(C)NCCCC[C@H](N)C(=O)O; d3Pal = N[C@H](Cc1cccnc1)C(=O)O

Experiments:
[1] = tested on: men with BPH; test: Post-void residual volume by transabdominal ultrasound; type: in vivo; conditions: all treatment groups
Method: (§1) For each patient, the following parameters were measured or assessed (using the methods discussed below), at time points of screening day 0 (e.g., −7 days, “baseline”), day 14, day 28, and day 42:
(§2) 2) Efficacy Endpoints—the measured Peak Urinary Flow, Post-void Residual Volume, and Prostate Volume.
The Post-void Residual Volume (PVR) was evaluated by transabdominal ultrasound. The urine in the patient's bladder was sonicated from two directions perpendicular to one another resulting in three cursor positions set by the urologist. The volume was calculated automatically. The investigations were performed by urologists by methods known in the art.

[2] = tested on: men with BPH; conditions: in vivo
Method: The study population was men with BPH with: a prostate volume larger than 30 mL, a maximal uroflow of 12 mL/s (with some exceptions), an IPSS score of at least 13, serum prostatic specific antigen (PSA) below 10 ng/mL, and no evidence of prostate cancer. Altogether, 52 patients with BPH were randomly assigned to four parallel groups of 13 patients each.
The patients were randomly allocated to receive either: one injection of 64 mg degarelix on Day 0 (hereinafter termed “64 mg”); one injection of 32 mg degarelix on Day 0 and one on Day 14 (hereinafter termed “32+32 mg”); one injection of 32 mg degarelix on Day 0 (hereinafter termed “32 mg”); or one injection of 16 mg degarelix on Day 0 and one on Day 14 (hereinafter termed “16+16 mg”).
In order to evaluate the effects of degarelix on urinary morbidity, sexual function and overall quality of life (QoL) due to urinary condition, patient reported questionnaires (IPSS, IIEF, and IPSS-global QoL) were used. The questionnaires were answered by the patient at the clinic visits, in line with standard procedures.
The IIEF questionnaire evaluated sexual dysfunction associated with treatment. […] Question numbers one to ten are scored on a six-point scale from zero ('No sexual activity') to five (Almost always to always'). Question numbers 11-15 are scored on a five-point scale from one (Almost never or never') to five (Almost always to always'). […]

[3] = tested on: men with BPH; test: IPSS global QoL question, clinical trial in BPH patients; type: in vivo
Method: as §1
(§3) After the initial 6-week treatment period of the exploratory study had been completed, a 12-month follow-up period looking at long-term efficacy commenced. Interim data of the main efficacy variables (IPSS, IPSS Global QoL, prostate volume, urinary flow, and post-void residual volume—measured as set out below) after 6 months' follow-up are also presented herein at Tables 1, 2, 3, and FIG. 1b. FIG. 1b also includes IPSS data at 9 and 12 months.
Included in the IPSS is one item to evaluate QoL (i.e., IPSS-global QoL). The Global QoL Question was developed alongside the IPSS and was officially included as part of the IPSS in 1993 when the WHO formally recommended the IPSS for both symptom and QoL assessment. […] This question assesses the degree to which patients find their symptoms bothersome. Patients are asked about how they would feel if they were to spend the rest of their lives with their prostate symptoms just as they are now. The choices for answering this quality of life question range from “delighted” (rating=0) to “terrible” (rating=6).

[4] = tested on: prostate volume; test: Prostate volume by transrectal ultrasound; type: in vivo, men
Method: as §1, §2, §3
The prostate volume was measured by transrectal ultrasound with the patient in a lateral position. The prostatic gland was sonicated from two directions perpendicular to one another resulting in three cursor positions set by the urologist. The volume was calculated automatically. The investigations were performed by urologists by methods known in the art.

[5] = 16+16 mg, Month 6 follow-up, n=6
[6] = 32+32 mg, Month 6 follow-up, n=7
[7] = combined group (all doses), Day 42

CC(=O)N[C@H](Cc1ccc2ccccc2c1)C(=O)N[C@H](Cc1ccc(Cl)cc1)C(=O)N[C@H](Cc1cccnc1)C(=O)N[C@@H](CO)C(=O)N[C@@H](Cc1ccc(NC(=O)[C@@H]2CC(=O)NC(=O)N2)cc1)C(=O)N[C@H](Cc1ccc(NC(N)=O)cc1)C(=O)N[C@@H](CC(C)C)C(=O)N[C@@H](CCCCNC(C)C)C(=O)N1CCC[C@H]1C(=O)N[C@H](C)C(N)=O [Degarelix, D-Alaninamide, N-acetyl-3-(2-naphthalenyl)-D-alanyl-4-chloro-D-phenylalanyl-3-(3-pyridinyl)-D-alanyl-L-seryl-4-[[[(4S)-hexahydro-2,6-dioxo-4-pyrimidinyl]carbonyl]amino]-L-phenylalanyl-4-[(aminocarbonyl)amino]-D-phenylalanyl-L leucyl-N6-(1-methylethyl)-L-lysyl-L-prolyl] (Ac-[d2Nal][dPhe(4-Cl)][d3Pal]S[Phe(4-NH2)](Dihydroorotyl(S))[dPhe(4-NHCONH2)]L[Lys(iPr)]P[dA]-NH2)
Mean post-void residual volume ([1]; Day 14, apparent dose dependent way): decreased | Mean post-void residual volume versus baseline ([1]; Day 42): lower than the baseline value | Number of patients in whom post-void residual volume had decreased compared to baseline ([1]; Day 42): 33 patients | Number of patients in whom post-void residual volume increased compared to baseline ([1]; Day 42): 17 patients | Change of IIEF scores [2]: mild decrease | Mean IPSS global QoL score, mean (SD) ([3]; 32 mg, Day 42, N=12): 1.8 (2.0) | Mean change from baseline in IPSS global QoL score, mean (SD) ([3]; 32 mg, Day 42, N=12): −2.1 (3.0) | Change from baseline in IPSS global QoL score, mean (SD) ([3]; 32 mg, Month 6 follow-up, n=7): −1.4 (1.1) | Mean IPSS global QoL score, mean (SD) ([3]; 32 mg, Month 6 follow-up, n=7): 1.4 (1.5) | Mean IPSS global QoL score, mean (SD) ([3]; 64 mg, Day 42, N=13): 2.5 (1.3) | Mean change from baseline in IPSS global QoL score, mean (SD) ([3]; 64 mg, Day 42, N=13): −2.2 (1.6) | Change from baseline in IPSS global QoL score, mean (SD) ([3]; 64 mg, Month 6 follow-up, n=4): −0.8 (1.7) | Mean IPSS global QoL score, mean (SD) ([3]; 64 mg, Month 6 follow-up, n=4): 3.8 (1.3) | Mean IPSS global QoL score, mean (SD) ([3]; 16+16 mg, Day 42, N=13): 2.9 (1.4) | Mean change from baseline in IPSS global QoL score, mean (SD) ([3]; 16+16 mg, Day 42, N=13): −1.2 (1.4) | Change from baseline in IPSS global QoL score, mean (SD) [3, 5]: −0.3 (0.5) | Mean IPSS global QoL score, mean (SD) [3, 5]: 4.2 (1.5) | Mean IPSS global QoL score, mean (SD) ([3]; 32+32 mg, Day 42, N=12): 1.9 (1.6) | Mean change from baseline in IPSS global QoL score, mean (SD) ([3]; 32+32 mg, Day 42, N=12): −2.4 (1.9) | Change from baseline in IPSS global QoL score, mean (SD) [3, 6]: −2.7 (2.1) | Mean IPSS global QoL score, mean (SD) [3, 6]: 1.6 (0.8) | Patients feeling delighted, pleased, or mostly satisfied (IPSS Global QoL scores 0-2) [3, 7]: 58% | Patients feeling unhappy or terrible (IPSS Global QoL scores 5 and 6) [3, 7]: 12% | Mean (SD) Prostate Volume ([4]; 32 mg, Day 42, N=12): 34.8 (14.2) mL | Prostate Volume, Change from Baseline, mean (SD) ([4]; 32 mg, Day 42, N=12): −13.9 (14.7) mL | Prostate Volume, Percentage Change from Baseline, mean (SD) ([4]; 32 mg, Day 42, N=12): −25.1 (18.0) % | Mean (SD) Prostate Volume ([4]; 32 mg, Month 6 follow-up, n=7): 34.3 (13.9) mL | Prostate Volume, Change from Baseline, mean (SD) ([4]; 32 mg, Month 6 follow-up, n=7): −11.6 (5.1) mL | Prostate Volume, Percentage Change from Baseline, mean (SD) ([4]; 32 mg, Month 6 follow-up, n=7): −25.6 (8.0) % | Mean (SD) Prostate Volume ([4]; 64 mg, Day 42, N=13): 30.6 (10.5) mL | Prostate Volume, Change from Baseline, mean (SD) ([4]; 64 mg, Day 42, N=13): −8.2 (10.2) mL | Prostate Volume, Percentage Change from Baseline, mean (SD) ([4]; 64 mg, Day 42, N=13): −19.7 (23.2) % | Mean (SD) Prostate Volume ([4]; 64 mg, Month 6 follow-up, n=4): 29.0 (3.4) mL | Prostate Volume, Change from Baseline, mean (SD) ([4]; 64 mg, Month 6 follow-up, n=4): −9.7 (10.4) mL | Prostate Volume, Percentage Change from Baseline, mean (SD) ([4]; 64 mg, Month 6 follow-up, n=4): −21.5 (20.6) % | Mean (SD) Prostate Volume ([4]; 16+16 mg, Day 42, N=13): 34.5 (11.0) mL | Prostate Volume, Change from Baseline, mean (SD) ([4]; 16+16 mg, Day 42, N=13): −7.5 (7.7) mL | Prostate Volume, Percentage Change from Baseline, mean (SD) ([4]; 16+16 mg, Day 42, N=13): −17.0 (16.7) % | Mean (SD) Prostate Volume [4, 5]: 29.6 (10.4) mL | Prostate Volume, Change from Baseline, mean (SD) [4, 5]: −11.2 (4.4) mL | Prostate Volume, Percentage Change from Baseline, mean (SD) [4, 5]: −27.8 (8.7) % | Mean (SD) Prostate Volume ([4]; 32+32 mg, Day 42, N=12): 28.7 (8.2) mL | Prostate Volume, Change from Baseline, mean (SD) ([4]; 32+32 mg, Day 42, N=12): −9.4 (9.3) mL | Prostate Volume, Percentage Change from Baseline, mean (SD) ([4]; 32+32 mg, Day 42, N=12): −23.5 (20.9) % | Mean (SD) Prostate Volume [4, 6]: 26.5 (6.0) mL | Prostate Volume, Change from Baseline, mean (SD) [4, 6]: −10.6 (8.8) mL | Prostate Volume, Percentage Change from Baseline, mean (SD) [4, 6]: −27.1 (17.3) %
